Assay results as given in patent publication US20090280060A1, “PHOTOCHROMIC PROBES” (priority 2004, published 2009).

B1: Constitutively active cofilin: constitutively active S3A cofilin (protein, UniProt P23528 2-166, looked up, variant S3A)
Cofilin-1: AAGVAVSDGVIKVFNDMKVRKSSTPEEVKKRKKAVLFCLSEDKKNIILEEGKEILVGDVGQTVDDPYATFVKMLPDKDCRYALYDATYETKESKKEDLVFIFWAPESAPLKSKMIYASSKDAIKKKLTGIKHELQANCYEEVKDRCTLAEKLGGSAVISLEGKPL
B2: caged cofilin: constitutively active S3A cofilin caged with 3-5 NVOC groups by the NVOC-Cl approach (protein, UniProt P23528 2-166, looked up, variant S3A)
Cofilin-1: B1 Cofilin-1
modifications: caged with 3-5 NVOC groups
B3: Uncaged cofilin: caged cofilin after light-directed uncaging (protein, UniProt P23528 2-166, looked up, variant S3A)
Cofilin-1: B1 Cofilin-1
modifications: uncaged after photolysis
notes: caged cofilin after light-directed uncaging

Experiments:
BSA = BSA (Bos taurus, UniProt P02769); experiment: Absorption spectra of MC probes attached to a cysteine residue on BSA; type: physicochemical; details: MC state, probe attached to a cysteine residue on BSA
BSA, sequence (P02769 25-607): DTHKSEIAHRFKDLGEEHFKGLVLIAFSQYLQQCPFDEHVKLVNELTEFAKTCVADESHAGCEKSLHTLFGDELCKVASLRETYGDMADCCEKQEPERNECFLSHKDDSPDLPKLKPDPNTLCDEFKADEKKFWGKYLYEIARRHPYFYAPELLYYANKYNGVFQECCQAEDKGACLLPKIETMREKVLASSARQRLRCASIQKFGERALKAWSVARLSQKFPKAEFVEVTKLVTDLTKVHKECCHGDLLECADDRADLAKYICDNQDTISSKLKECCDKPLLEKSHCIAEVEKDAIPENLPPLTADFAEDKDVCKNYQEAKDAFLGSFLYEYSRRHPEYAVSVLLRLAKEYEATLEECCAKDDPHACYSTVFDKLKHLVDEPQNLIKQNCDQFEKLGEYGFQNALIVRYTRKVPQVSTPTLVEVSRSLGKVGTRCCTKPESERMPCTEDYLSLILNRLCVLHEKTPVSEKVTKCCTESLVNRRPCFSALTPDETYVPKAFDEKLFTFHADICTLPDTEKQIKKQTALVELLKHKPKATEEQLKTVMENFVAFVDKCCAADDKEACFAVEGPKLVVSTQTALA
Method: BSA: BSA conjugates of the spirobenzopyran reagents were prepared in a similar fashion to that described for G-actin yielding similar labeling ratios (FIG. 5C). The absorption spectrum of the five MC probes attached to a cysteine residue on BSA are centered at 544.5 nm (18,365 cm^−1) for compound 6,534 nm ([…]) for compound 12, 520 nm (19,231 cm^−1) for compounds 9; 503.5 nm (19,861 cm^−1) for compound 13. The difference in the energy of the absorption bands for these conjugates of 1496 cm^−1 is a little less than that found between the same probes on G-actin but again is significant in terms of the free energy of complex formation between BSA and its ligands. These confirm the conclusion that the protein matrix is made up of a complex dipolar landscape.

G-actin [1] = biological target: T1, G-actin (Oryctolagus cuniculus, UniProt P68135); experiment: Absorption spectra of MC state of probes attached to cysteine-374 on G-actin; type: physicochemical, Rabbit; set-up: Rabbit muscle G-actin was purified according to Marriott; from tissue; host or cells: rabbit muscle; details: probe attached to cysteine-374 of G-actin
Method: (§1) MATERIALS AND METHODS. Instrumentation. ^1H NMR spectra were measured on a Brucker Ac 300 MHz; mass spectra were carried out on a Micromass AutoSpec for EI, a Micromass LCT for ESI, or a Bruker REFLEX II for MALDI. Absorption spectra were recorded on a Hewlett-Packard 82152 diode array spectrophotometer or a Shimadzu 1601 PC instrument. Fluorescence spectroscopy was performed on an SLM-AB2 instrument (Thermoelectron, Madison, Wis.) or an ISS PC1 (Champaign, Ill.). Light-directed switching of the probes described in this work was achieved by irradiating the sample (120-1000 μL) with the 365 nm or 546 nm lines of a 100 W Hg-arc lamp (Zeiss).
Rabbit muscle G-actin was purified according to Marriott^14 in G-buffer (2 mM Tris, 0.2 mM CaCl2, and 0.2 mM ATP at pH 8.0). The concentration of G-actin was determined by absorption spectroscopy using an extinction coefficient of 3400 M^−1 cm^−1 at 290 nm^14. 1 ml of a 20 μM solution of G-actin was treated with 20 μL of a 10 mM DMF stock solution of each thiol reactive, spirobenzopyran probe. The reaction mixture was left in the dark for 2 hours at room temperature. The protein was centrifuged for 10 min at 2000 g at 4° and applied to a Bio-Rad PD-10 column equilibrated in G-buffer containing 1 mM DTT. […]
G-Actin: The reaction between a ten-fold molar excess of thiol reactive, spirobenzopyran reagents and 20 μM G-actin at 20° is complete within 2 hours. The concentration of spirobenzopyran in each conjugate is determined from the value of the absorption maximum of the SP form of G-actin conjugates using an extinction coefficient of 35,000 M^−1cm^−1 at 350 nm^15 (FIG. 5A) The absorption spectra of the MC and SP states are not affected by the labeling ratio (spirobenzopyran/G-actin, which varies from 0.6 to 0.8 within the different conjugates. Cysteine-374 is located at an important site on G-actin and has been implicated in several important interactions of actin that include protomer-contacts within F-actin^23, the binding of the actin filament capping proteins Gelsolin and CapG^24 and the motor protein, myosin II^25. […]

G-actin [2] = biological target: T1, G-actin; experiment: Fluorescence excitation and emission spectra of G-actin conjugates; type: physicochemical, Rabbit; set-up: Rabbit muscle G-actin was purified according to Marriott; from tissue; host or cells: rabbit muscle; details: for MC emission maximum of G-actin conjugate: excitation wavelength of 370 nm
Excerpt: FIG. 3. (A), Technical fluorescence excitation spectrum of the G-actin conjugate of compound 12, showing the S0-S2 (centered at 370 nm) and S0-S1 (centered at 558 nm) excitation bands of MC. The emission was monitored at an emission wavelength of 650 nm. (B), Normalized, technical emission spectra of G-actin conjugates of compounds: a), 3 (624 nm); b), 12 (622 nm); c), 6 (628 nm); d), 13 (630 nm). The emission from the MC state in each conjugate was generated using an excitation wavelength of […].
as §1
Further information on MC-solvent interactions can be derived from studying the fluorescence properties of MC. From a practical standpoint, fluorescence from ^1MC* is best studied by exciting the spirobenzopyran with mid-ultraviolet light (S0-S2 transition)—this condition maintains a uniform population of MC excited state molecules (see Jablonski diagram, FIG. 4A). Contrary to the ground state studies, the inventors find that the average energy of the MC fluorescence is insensitive to the solvent (water, 2-propanol, 1,2-propanediol and acetonitrile; data not shown) and to the location of MC probe on G-actin (FIG. 3B).

[3] = system: fertilized xenopus oocytes; experiment: Cell division in microinjected fertilized xenopus oocytes; type: in vivo; details: microinjection at the 4 cell stage
Method: Light directed activation of constitutively active caged cofilin. Caged cofilin (constitutively active S3A) was prepared independently of Ghosh et al (2004) using our standard NVOC-Cl approach (Marriott, 1994) that is described above for caged CapG. […] Oocytes were microinjected with caged fluorescein dextran (Molecular Probes) and concentrated caged cofilin (5 mg/ml) at the 4 cell stage—we estimate that the intracellular concentration of cofilin is the two injected cells is between 30˜50 μM. Irradiation of all four cells in the embryo with 365 nm light for 2 seconds generated fluorescein and green fluorescence, and by implication cofilin, from their caged precursors in the two injected cells. […] We conclude from these studies that the increased concentration of cofilin generated by uncaging inhibits actin filament dynamics and cytokinesis (Bamburg, 1999).

F-actin = biological target: T2, F-actin (Oryctolagus cuniculus, UniProt P68135); experiment: Prodan-F-actin depolymerization kinetics after dilution; type: biochemical; details: Prodan actin emission ratio 465/502 nm, dilution below the critical concentration
T2 construct: Rabbit muscle G-actin is purified according to Marriott (1994); from tissue; host or cells: rabbit muscle

[4] = G-actin conjugate, emission monitored at 650 nm

| Molecule | MC absorption spectrum centre on BSA (BSA) [nm] | MC absorption maximum on G-actin (G-actin [1]) [nm] | MC emission maximum of G-actin conjugate (G-actin [2]) [nm] | effect on cell division / cytokinesis [3] | effect on rate of F-actin depolymerization (F-actin) | further results |
| --- | --- | --- | --- | --- | --- | --- |
| 4′-(Bromomethyl)spirobenzopyran [compound 9] | 520 | 500 |  |  |  |  |
| 6′-(Bromomethyl)spirobenzopyran [compound 13] | 503.5 | 551.5 | 630 |  |  |  |
| 6′-(Maleimidomethyl)spirobenzopyran [compound 12] |  | 551.5 | 622 |  |  | S0-S1 excitation band of MC, centre (G-actin [2]; [4]): 558 nm; S0-S2 excitation band of MC, centre (G-actin [2]; [4]): 370 nm |
| 8-(Iodomethyl)spirobenzopyran [compound 3] |  |  | 624 |  |  |  |
| CC1(C)c2ccccc2N(CCN2C(=O)C=CC2=O)C12C=Cc1cc([N+](=O)[O-])ccc1O2 (stereo not shown) [compound 6, 1′-(Maleimidoethyl)spirobenzopyran] | 544.5 |  | 628 |  |  |  |
| wild type cofilin: wild type cofilin, inactivated by phosphorylation at Ser-3 |  |  |  | no effect on cell division |  |  |
| B1 |  |  |  | inhibited cytokinesis | increases the rate of F-actin depolymerization |  |
| B2 |  |  |  | failed to undergo further divisions | did not accelerate the rate of F-actin depolymerization | effect on cell division / cytokinesis ([3]; listed as caged constitutively active cofilin): inhibits cytokinesis |
| B3 |  |  |  |  | restores a substantial fraction of the cofilin activity |  |
